Patent US7161032B2, “Sulfonamide derivatives, insecticides for agricultural and horticultural use, and usage thereof” (Nihon Nohyaku Co., Ltd., priority 2002, dated 2007)

Key:
Format in all cases: in vivo
[1] = tested on: Diamond Back Moth (Plutella xylostella); experiment: Insecticidal effect on diamond back moth (Test Example 1): egg-bearing Chinese cabbage seedling immersed in 50 ppm liquid chemical
Procedure, shortened: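 Seedlings bearing 2-day-old eggs dipped about 30 s in 50 ppm formulated compound, air-dried, held at 25° C. Hatched larvae counted 6 days after immersion; mortality calculated and graded by criterion. Triplicate groups of 10 insects.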

[2] = tested on: Common Cutworm (Spodoptera litura); experiment: Insecticidal effect on common cutworm (Test Example 2): cabbage leaf piece immersed in 50 ppm liquid chemical; conditions: common cutworm (Spodoptera litura) second-instar larvae, 8 days after inoculation, 25° C.
Procedure, shortened: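 Cabbage leaf pieces (cv. Shikidori) dipped ~30 s in formulated compound at 50 ppm and air-dried. Second-instar larvae added, kept at 25° C. Dead and alive counted at 8 days to give % mortality, scored against a criterion scale; three groups of 10 insects.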

[3] = tested on: Smaller Tea Tortrix (Adoxophyes sp.); experiment: Insecticidal effect on smaller tea tortrix (Test Example 3): tea leaves immersed in 50 ppm liquid chemical; conditions: smaller tea tortrix (Adoxophyes sp.) larvae, 8 days after inoculation, 25° C., humidity 70%
Procedure, shortened: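 Tea leaves dipped about 30 seconds in 50 ppm compound preparation, air-dried, then infested with larvae and held at 25° C and 70% humidity. Dead and alive counted 8 days after inoculation; triplicate groups of 10 insects.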

Structure (SMILES) | Insecticidal effect (mortality grade), Test Example 1 [1] | Insecticidal effect (mortality grade), Test Example 2 [2] | Insecticidal effect (mortality grade), Test Example 3 [3]
Cc1cc(C(F)(F)C(F)(F)F)ccc1NC(=O)c1cccc(I)c1C(=O)NC(C)(C)CS(=O)(=O)NCC[S+](C)[O-] (stereo not drawn) [1-305] | A (Mortality 100%) | A (Mortality 100%) | A (Mortality 100%)
CCN(CC)S(=O)(=O)CC(C)NC(=O)c1c(I)cccc1C(=O)Nc1ccc(OC(F)(F)F)cc1Cl (stereo not drawn) [1-285] | A (Mortality 100%) | C (Mortality 89–80%) | E (Mortality less than 50%)
COCCNS(=O)(=O)CC(C)(C)NC(=O)c1c(I)cccc1C(=O)Nc1ccc(C(F)(C(F)(F)F)C(F)(F)F)cc1C [1-79] | A (Mortality 100%) | A (Mortality 100%) | A (Mortality 100%)
CNS(=O)(=O)CC(C)(C)NC(=O)c1c(I)cccc1C(=O)Nc1ccc(C(F)(C(F)(F)F)C(F)(F)F)cc1C [1-176] | A (Mortality 100%) | A (Mortality 100%) | A (Mortality 100%)
CSCC(C)NS(=O)(=O)CC(C)NC(=O)c1c(I)cccc1C(=O)Nc1ccc(C(F)(C(F)(F)F)C(F)(F)F)cc1C (stereo not drawn) [1-91] | A (Mortality 100%) | A (Mortality 100%) | A (Mortality 100%)
CCN(CC)S(=O)(=O)CCCC(C)(C)NC(=O)c1c(I)cccc1C(=O)Nc1ccc(C(F)(C(F)(F)F)C(F)(F)F)cc1C [1-201] | A (Mortality 100%) | A (Mortality 100%) | A (Mortality 100%)
Cc1cc(C(F)(C(F)(F)F)C(F)(F)F)ccc1NC(=O)c1cccc(I)c1C(=O)NC(C)CS(=O)(=O)Nc1cccc(F)c1 (stereo not drawn) [1-109] | A (Mortality 100%) | E (Mortality less than 50%) | A (Mortality 100%)
Cc1cc(C(F)(C(F)(F)F)C(F)(F)F)ccc1NC(=O)c1cccc(I)c1C(=O)NC(C)CS(=O)(=O)N[C@H](C)c1ccccc1 (stereo partly drawn) [1-45] | A (Mortality 100%) | A (Mortality 100%) | A (Mortality 100%)
Cc1cc(C(F)(C(F)(F)F)C(F)(F)F)ccc1NC(=O)c1cccc(I)c1C(=O)NC(C)CS(=O)(=O)N(C)C (stereo not drawn) [1-3] | A (Mortality 100%) | A (Mortality 100%) | A (Mortality 100%)
Cc1cc(C(F)(C(F)(F)F)C(F)(F)F)ccc1NC(=O)c1cccc(Br)c1C(=O)NC(C)CS(=O)(=O)NCc1ccccc1 (stereo not drawn) [1-218] | A (Mortality 100%) | A (Mortality 100%) | A (Mortality 100%)
Cc1cc(C(F)(C(F)(F)F)C(F)(F)F)ccc1NC(=O)c1cccc(I)c1C(=O)NC(C)CS(=O)(=O)NC(C)C (stereo not drawn) [1-8] | A (Mortality 100%) | A (Mortality 100%) | A (Mortality 100%)
CCCNS(=O)(=O)CC(C)NC(=O)c1c(Br)cccc1C(=O)Nc1ccc(C(F)(C(F)(F)F)C(F)(F)F)cc1C (stereo not drawn) [1-215] | A (Mortality 100%) | A (Mortality 100%) | A (Mortality 100%)
CCNS(=O)(=O)CC(C)NC(=O)c1c(I)cccc1C(=O)Nc1ccc(OC(F)(F)F)cc1C (stereo not drawn) [1-275] | A (Mortality 100%) | E (Mortality less than 50%) | E (Mortality less than 50%)
Cc1cc(C(F)(C(F)(F)F)C(F)(F)F)ccc1NC(=O)c1cccc(I)c1C(=O)NC(C)CS(=O)(=O)N[C@@H](C)c1ccccc1 (stereo partly drawn) [1-46] | A (Mortality 100%) | A (Mortality 100%) | A (Mortality 100%)
Cc1cc(C(F)(C(F)(F)F)C(F)(F)F)ccc1NC(=O)c1cccc(I)c1C(=O)NC(C)(C)CS(=O)(=O)NCCS(=O)(=O)c1ccccc1 [1-89] | A (Mortality 100%) | A (Mortality 100%) | A (Mortality 100%)
Cc1cc(C(F)(C(F)(F)F)C(F)(F)F)ccc1NC(=O)c1cccc(I)c1C(=O)NC(C)CS(=O)(=O)N1CCSCC1 (stereo not drawn) [1-55] | A (Mortality 100%) | A (Mortality 100%) | A (Mortality 100%)
COc1ccccc1NS(=O)(=O)CC(C)NC(=O)c1c(I)cccc1C(=O)Nc1ccc(C(F)(C(F)(F)F)C(F)(F)F)cc1C (stereo not drawn) [1-108] | A (Mortality 100%) | A (Mortality 100%) | A (Mortality 100%)
CCNS(=O)(=O)CC(C)NC(=O)c1c(Br)cccc1C(=O)Nc1ccc(C(F)(C(F)(F)F)C(F)(F)F)cc1C (stereo not drawn) [1-212] | A (Mortality 100%) | A (Mortality 100%) | A (Mortality 100%)
Cc1cc(C(F)(C(F)(F)F)C(F)(F)F)ccc1NC(=O)c1cccc(I)c1C(=O)NC(C)(C)CS(N)(=O)=O [1-175, 3-iodo-N^1-{2-methyl-4-[1,2,2,2-tetrafluoro-1-(trifluoromethyl)ethyl]phenyl}-N^2-(2-sulfamoyl-1,1-dimethylethyl)phthalamide] | A (Mortality 100%) | A (Mortality 100%) | A (Mortality 100%)
Cc1cc(C(C(F)(F)F)C(F)(F)F)ccc1NC(=O)c1cccc(I)c1C(=O)NC(C)(C)CS(=O)(=O)N1CCCC1 [1-345] | A (Mortality 100%) | A (Mortality 100%) | A (Mortality 100%)
Cc1cc(C(F)(C(F)(F)F)C(F)(F)F)ccc1NC(=O)c1cccc(I)c1C(=O)NC(C)CS(=O)(=O)NCc1cccc([N+](=O)[O-])c1 (stereo not drawn) [1-30] | A (Mortality 100%) | A (Mortality 100%) | A (Mortality 100%)
Cc1cc(C(F)(C(F)(F)F)C(F)(F)F)ccc1NC(=O)c1cccc(I)c1C(=O)NC(C)(C)CS(=O)(=O)NCCSc1ccccc1 [1-87] | A (Mortality 100%) | A (Mortality 100%) | A (Mortality 100%)
COc1ccccc1CNS(=O)(=O)CC(C)NC(=O)c1c(I)cccc1C(=O)Nc1ccc(C(F)(C(F)(F)F)C(F)(F)F)cc1C (stereo not drawn) [1-27] | A (Mortality 100%) | A (Mortality 100%) | A (Mortality 100%)
COC(=O)N1CCN(S(=O)(=O)CC(C)NC(=O)c2c(I)cccc2C(=O)Nc2ccc(C(F)(C(F)(F)F)C(F)(F)F)cc2C)CC1 (stereo not drawn) [1-66] | A (Mortality 100%) | A (Mortality 100%) | A (Mortality 100%)
CSCC(C)(C)NS(=O)(=O)CC(C)NC(=O)c1c(I)cccc1C(=O)Nc1ccc(C(F)(C(F)(F)F)C(F)(F)F)cc1C (stereo not drawn) [1-94] | A (Mortality 100%) | A (Mortality 100%) | A (Mortality 100%)
Cc1cc(C(F)(C(F)(F)F)C(F)(F)F)ccc1NC(=O)c1cccc(I)c1C(=O)NC(C)CS(=O)(=O)NC(C)CS(C)(=O)=O (stereo not drawn) [1-93] | A (Mortality 100%) | A (Mortality 100%) | A (Mortality 100%)
